For this assay, the system named is human immunodeficiency virus (HIV). Description: HIV viral assay (carried out by Imquest Bioscience). The format is cell-based. Here is the method:
Antiviral compounds may be incorporated into polymers, such as hydrophilic polyurethanes or silicone, for certain applications where antiviral activities are needed.
The compound (0.5 gms) was protonated using dilute hydrochloric acid to a pH of 4 to a total volume of 30 ml. To 5 gms of this solution was added 5 gms of polyvinyl sulfonate (Aldrich, a 25 wt % aqueous solution). A white precipitate of the adduct immediately formed and remained colloidal without settling. This was used as such for an assay carried out by Imquest Bioscience, MD, and high dilutions were studied. […] These and other compounds could be incorporated into the polyurethane plastics of this invention for their slow delivery of antivirals; other viruses could be potentially also be deactivated.

On to `c1c[nH]c(-c2ncc[nH]2)n1` [bimidazole, biimidazole], for which the “antiviral efficacy (in words)” value is listed as “potent antiviral”.

Values taken from patent US20080124368A1, “Composition” (priority 2004, published 2008).
